Experimental data: patent publication US10934297B2, “5-heteroaryl substituted indazole-3-carboxamides and preparation and use thereof” (Samumed, LLC, priority 2018, dated 2021)
pEC50, pIC50: −log10 of the molar value.

Tests used:
[1] = tested on: Wnt activity (Sp5-Luc reporter in SW480 cells); assay: Screening assay for Wnt activity: Sp5-Luc reporter gene assay in SW480 colon carcinoma cells; assay type: cell-based, human; settings: Homo sapiens, 36 to 48 hours
In short: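 EC50 values come from a variable-slope four-parameter fit of luminescence normalized to DMSO-only wells. The read-out follows 36–48 h incubation at 37 °C, 5% CO2, in DMEM containing 1% fetal bovine serum. Cells are hygromycin-selected SW480 stably expressing firefly luciferase under a Wnt-responsive Sp5 promoter (eight TCF/LEF sites).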

DYRK1A kinase = DYRK1A kinase (Homo sapiens (Human), UniProt Q13627); assay: DYRK1A kinase assay (Ser/Thr 18 peptide Z-lyte FRET); assay type: biochemical; settings: read-out: EC50 (method: IC50)
In short: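 Kinase reactions with compound ran 1 h at room temperature in duplicate, and development reagent was then added for another hour.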

GSK3β kinase = GSK3β kinase (Homo sapiens (Human), UniProt P49841); assay: GSK3β kinase assay (Ser/Thr 09 peptide Z-lyte FRET); assay type: biochemical; settings: read-out: EC50 (method: IC50)
In short: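 Non-radioactive Z-lyte FRET read-out, kinase activity expressed as coumarin/fluorescein emission ratio. Compounds incubated with the reaction mixture one hour at room temperature in duplicate, then development buffer added for another hour. IC50 from non-linear regression of dose-response curves.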

[2] = tested on: SW480 colon carcinoma cells; assay: Cell viability assay (CellTiter-Glo) in SW480 colon carcinoma cells; assay type: cell-based, human; settings: Homo sapiens, 96 h, four days
In short: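 Viability was taken from CellTiter-Glo ATP luminescence, read about 12 min after reagent addition, relative to DMSO controls. The cells were Sp5-Luc reporter SW480 colon carcinoma cells, 2,000/well in 1% FBS DMEM, exposed to compound for four days at 37 °C.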

[3] = tested on: primary human fibroblasts derived from IPF patients (LL29 cells); assay: Inhibition of the fibrotic process: αSMA staining in TGF-β1 treated LL29 fibroblasts; assay type: cell-based; settings: Homo sapiens, Fibroblast, 96 h; LL29 cells, TGF-β1 20 ng/mL, 4 days, % αSMA positive cells
In short: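 LL29 fibroblasts from IPF patients, in F12 medium with 1% FBS, treated with TGF-β1 plus compound; TGF-β1 with DMSO as positive control, DMSO alone as negative control. After 4 days' incubation, SYTOX green nucleic acid stain added at 1 μM final, 30 min at room temperature.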

IL-6 = IL-6 inhibition in LPS-stimulated human peripheral blood mononuclear cells (HTRF); assay type: cell-based; settings: Homo sapiens, PBMC; for pEC50: huPBMCs, LPS 50 ng/mL, 22 hours, IL-6 HTRF; for inhibition at 10 µM: read-out: percent inhibition at 10 μM
In short: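 HTRF 665/620 nm ratio, read after 3 h antibody incubation at room temperature, quantified IL-6 released by fresh human PBMCs (1×10e6 cells/mL, 1% FBS-RPMI). The cells got compound, then 50 ng/mL LPS at 2 h, followed by a further 22 h at 37° C. EC50 came from DMSO-normalized readings run in duplicate.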

GSK3β kinase, sequence (P49841 whole entry): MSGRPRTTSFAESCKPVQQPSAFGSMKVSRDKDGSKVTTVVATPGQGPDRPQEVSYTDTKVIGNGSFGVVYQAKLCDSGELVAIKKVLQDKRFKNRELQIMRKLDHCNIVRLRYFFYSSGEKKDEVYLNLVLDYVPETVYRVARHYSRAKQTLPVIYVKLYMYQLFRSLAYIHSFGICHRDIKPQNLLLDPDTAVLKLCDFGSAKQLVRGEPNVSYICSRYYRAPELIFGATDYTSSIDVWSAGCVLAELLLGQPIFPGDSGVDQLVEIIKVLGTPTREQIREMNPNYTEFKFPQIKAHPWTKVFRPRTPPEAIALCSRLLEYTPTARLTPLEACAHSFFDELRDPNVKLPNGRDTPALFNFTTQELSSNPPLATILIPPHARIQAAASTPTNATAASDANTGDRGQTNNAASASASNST

| SMILES | pEC50 [1] | pIC50 (DYRK1A kinase) | pIC50 (GSK3β kinase) | pEC50 [2] | pEC50 (IL-6) | pEC50 [3] | inhibition at 10 µM (IL-6) [%] |
| --- | --- | --- | --- | --- | --- | --- | --- |
| O=C(Nc1ccc(OC(F)F)cc1)c1n[nH]c2ccc(-c3cnn(C4CCN(CCF)CC4)c3)cc12 [Compound 60, N-(4-(Difluoromethoxy)phenyl)-5-(1-(1-(2-fluoroethyl)piperidin-4-yl)-1H-pyrazol-4-yl)-1H-indazole-3-carboxamide] | 5.41 | 5.82 | < 5.00 | 5.43 | 5.05 | 5.89 | – |
| O=C(Nc1ccc(OC(F)F)cc1)c1n[nH]c2ccc(-c3cnn(CC4CCNCC4)c3)cc12 [Compound 63, N-(4-(Difluoromethoxy)phenyl)-5-(1-(piperidin-4-ylmethyl)-1H-pyrazol-4-yl)-1H-indazole-3-carboxamide] | 5.03 | 6.12 | 5.63 | 6.11 | < 5.00 | 5.69 | 6.2 |
| CN1CCC(c2ccc(NC(=O)c3n[nH]c4cc(F)c(-c5cnn(C)c5)cc34)cc2)CC1 [Compound 65, 6-Fluoro-5-(1-methyl-1H-pyrazol-4-yl)-N-(4-(1-methylpiperidin-4-yl)phenyl)-1H-indazole-3-carboxamide] | 6.09 | 8.40 | 7.36 | 5.96 | 5.50 | 6.21 | – |
| CN1CCN(c2ccc(NC(=O)c3n[nH]c4cc(F)c(-c5cnn(C)c5)cc34)cc2)CC1 [Compound 66, 6-Fluoro-5-(1-methyl-1H-pyrazol-4-yl)-N-(4-(4-methylpiperazin-1-yl)phenyl)-1H-indazole-3-carboxamide] | 6.02 | 8.70 | 7.19 | 6.12 | 5.89 | 6.19 | – |
| CC(C)n1cc(-c2ccc3[nH]nc(C(=O)Nc4ccc(CN5CCCC5)cc4)c3c2)cn1 [Compound 71, 5-(1-Isopropyl-1H-pyrazol-4-yl)-N-(4-(pyrrolidin-1-ylmethyl)phenyl)-1H-indazole-3-carboxamide] | 5.83 | 7.60 | 6.77 | 5.96 | 5.32 | 6.49 | – |
| Cn1cc(-c2ccc3[nH]nc(C(=O)Nc4ccc(CN5CCCC5)cc4F)c3c2)cn1 [Compound 73, N-(2-Fluoro-4-(pyrrolidin-1-ylmethyl)phenyl)-5-(1-methyl-1H-pyrazol-4-yl)-1H-indazole-3-carboxamide] | 5.81 | 8.52 | 7.17 | 5.16 | 5.94 | 6.10 | – |
| Cn1cc(-c2ccc3[nH]nc(C(=O)Nc4ccc(CN5CCCC5)cc4O)c3c2)cn1 [Compound 74, N-(2-Hydroxy-4-(pyrrolidin-1-ylmethyl)phenyl)-5-(1-methyl-1H-pyrazol-4-yl)-1H-indazole-3-carboxamide] | 5.66 | 6.52 | 6.06 | < 5.00 | < 5.00 | 7.46 | 22.1 |
| CN1CCC(Oc2ccc(NC(=O)c3n[nH]c4cc(F)c(-c5cnn(C(F)F)c5)cc34)cc2)CC1 [Compound 80, 5-(1-(Difluoromethyl)-1H-pyrazol-4-yl)-6-fluoro-N-(4-((1-methylpiperidin-4-yl)oxy)phenyl)-1H-indazole-3-carboxamide] | 5.07 | 7.72 | 6.11 | 5.30 | 5.46 | 5.89 | – |

Now those with a higher pEC50 [1], led by results:

| pEC50 [1] | pIC50 (DYRK1A kinase) | pIC50 (GSK3β kinase) | pEC50 [2] | pEC50 (IL-6) | SMILES | pEC50 [3] | inhibition at 10 µM (IL-6) [%] |
| --- | --- | --- | --- | --- | --- | --- | --- |
| 6.26 | 8.22 | 7.40 | 6.64 | 5.92 | O=C(Nc1ccc(CN2CCCC2)cc1)c1n[nH]c2ccc(-c3cnn(C4CC4)c3)cc12 [Compound 72, 5-(1-Cyclopropyl-1H-pyrazol-4-yl)-N-(4-(pyrrolidin-1-ylmethyl)phenyl)-1H-indazole-3-carboxamide] | 6.62 | – |
| 6.27 | 8.52 | 7.41 | 5.96 | 5.94 | Cn1cc(-c2cc3c(C(=O)Nc4ccc(CN5CCC(F)CC5)cc4)n[nH]c3cc2F)cn1 [Compound 75, 6-Fluoro-N-(4-((4-fluoropiperidin-1-yl)methyl)phenyl)-5-(1-methyl-1H-pyrazol-4-yl)-1H-indazole-3-carboxamide] | 6.80 | – |
| 6.29 | 8.30 | 7.60 | 6.29 | 5.86 | CCn1cc(-c2ccc3[nH]nc(C(=O)Nc4ccc(CN5CCCC5)cc4)c3c2)cn1 [Compound 70, 5-(1-Ethyl-1H-pyrazol-4-yl)-N-(4-(pyrrolidin-1-ylmethyl)phenyl)-1H-indazole-3-carboxamide] | 6.90 | – |
| 6.51 | 8.70 | 7.70 | 6.72 | 5.88 | Cn1cc(-c2cc3c(C(=O)Nc4ccc(CN5CCCC5)cc4)n[nH]c3cc2F)cn1 [Compound 69, 6-Fluoro-5-(1-methyl-1H-pyrazol-4-yl)-N-(4-(pyrrolidin-1-ylmethyl)phenyl)-1H-indazole-3-carboxamide] | 6.48 | – |
| 6.56 | 8.70 | 7.13 | 6.66 | 5.91 | CN1CCC(Nc2ccc(NC(=O)c3n[nH]c4cc(F)c(-c5cnn(C)c5)cc34)cc2)CC1 [Compound 83, 6-Fluoro-5-(1-methyl-1H-pyrazol-4-yl)-N-(4-((1-methylpiperidin-4-yl)amino)phenyl)-1H-indazole-3-carboxamide] | 6.60 | – |
| 6.58 | 8.70 | 7.22 | 6.85 | 5.76 | CN1CCC(Oc2ccc(NC(=O)c3n[nH]c4cc(F)c(-c5cnn(C)c5)cc34)cc2)CC1 [Compound 79, 6-Fluoro-5-(1-methyl-1H-pyrazol-4-yl)-N-(4-((1-methylpiperidin-4-yl)oxy)phenyl)-1H-indazole-3-carboxamide] | 7.21 | – |
| 6.58 | 9.00 | 8.22 | 6.44 | < 5.00 | Cn1cc(-c2ccc3[nH]nc(C(=O)Nc4ccc(CN5CCCC5)cc4)c3c2)cn1 [Compound 68, 5-(1-Methyl-1H-pyrazol-4-yl)-N-(4-(pyrrolidin-1-ylmethyl)phenyl)-1H-indazole-3-carboxamide] | 7.13 | – |
| 6.60 | 9.00 | 7.74 | 6.34 | 5.94 | CN1CCN(Cc2ccc(NC(=O)c3n[nH]c4cc(F)c(-c5cnn(C)c5)cc34)cc2)CC1 [Compound 78, 6-Fluoro-5-(1-methyl-1H-pyrazol-4-yl)-N-(4-((4-methylpiperazin-1-yl)methyl)phenyl)-1H-indazole-3-carboxamide] | 6.26 | – |
| 6.94 | 9.00 | 7.46 | 6.86 | 5.97 | Cc1c(-c2cc3c(C(=O)Nc4ccc(OC5CCN(C)CC5)cc4)n[nH]c3cc2F)cnn1C [Compound 81, 5-(1,5-Dimethyl-1H-pyrazol-4-yl)-6-fluoro-N-(4-((1-methylpiperidin-4-yl)oxy)phenyl)-1H-indazole-3-carboxamide] | 6.47 | – |
